Data taken from patent EP1247803A2, “Indolinone compounds suitable for modulation of protein kinases” (Sugen, Inc., priority 1996, dated 1998).

Tests used:
[1] = target: T1, EGFR (Homo sapiens, UniProt P00533); test: EGFR ELISA assay (in vitro kinase activity, EGFR captured from A431 cell lysate); format: biochemical; parameters: concentration or dose not given beside the values
T1 construct: Add 7 ug A431 cell lysate per well (EGFR source); endogenous in cells; host or cells: A431
Method in brief: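 EGFR from A431 lysate was captured on anti-EGFR antibody-coated plates and preincubated with compounds for 30 min. Autophosphorylation ran 5 min with 3 uM ATP and 5 mM MnCl2 (final), stopped with 20 mM EDTA. Phosphotyrosine was detected by anti-pTyr ELISA with ABTS/H2O2, read at 410 nm.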

[2] = system: MET; test: MET biochemical kinase assay; parameters: species or system human; concentration or dose not given beside the values
Method in brief: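 Capture ELISA: anti-rabbit Fc coat, rabbit anti-MET cytoplasmic domain pAb, lysate MET captured, washed. Compound + kinase buffer (ATP, divalent metals). Readout anti-pTyr-HRP/TMB, colorimetric.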

T1 sequence (P00533 25-1210): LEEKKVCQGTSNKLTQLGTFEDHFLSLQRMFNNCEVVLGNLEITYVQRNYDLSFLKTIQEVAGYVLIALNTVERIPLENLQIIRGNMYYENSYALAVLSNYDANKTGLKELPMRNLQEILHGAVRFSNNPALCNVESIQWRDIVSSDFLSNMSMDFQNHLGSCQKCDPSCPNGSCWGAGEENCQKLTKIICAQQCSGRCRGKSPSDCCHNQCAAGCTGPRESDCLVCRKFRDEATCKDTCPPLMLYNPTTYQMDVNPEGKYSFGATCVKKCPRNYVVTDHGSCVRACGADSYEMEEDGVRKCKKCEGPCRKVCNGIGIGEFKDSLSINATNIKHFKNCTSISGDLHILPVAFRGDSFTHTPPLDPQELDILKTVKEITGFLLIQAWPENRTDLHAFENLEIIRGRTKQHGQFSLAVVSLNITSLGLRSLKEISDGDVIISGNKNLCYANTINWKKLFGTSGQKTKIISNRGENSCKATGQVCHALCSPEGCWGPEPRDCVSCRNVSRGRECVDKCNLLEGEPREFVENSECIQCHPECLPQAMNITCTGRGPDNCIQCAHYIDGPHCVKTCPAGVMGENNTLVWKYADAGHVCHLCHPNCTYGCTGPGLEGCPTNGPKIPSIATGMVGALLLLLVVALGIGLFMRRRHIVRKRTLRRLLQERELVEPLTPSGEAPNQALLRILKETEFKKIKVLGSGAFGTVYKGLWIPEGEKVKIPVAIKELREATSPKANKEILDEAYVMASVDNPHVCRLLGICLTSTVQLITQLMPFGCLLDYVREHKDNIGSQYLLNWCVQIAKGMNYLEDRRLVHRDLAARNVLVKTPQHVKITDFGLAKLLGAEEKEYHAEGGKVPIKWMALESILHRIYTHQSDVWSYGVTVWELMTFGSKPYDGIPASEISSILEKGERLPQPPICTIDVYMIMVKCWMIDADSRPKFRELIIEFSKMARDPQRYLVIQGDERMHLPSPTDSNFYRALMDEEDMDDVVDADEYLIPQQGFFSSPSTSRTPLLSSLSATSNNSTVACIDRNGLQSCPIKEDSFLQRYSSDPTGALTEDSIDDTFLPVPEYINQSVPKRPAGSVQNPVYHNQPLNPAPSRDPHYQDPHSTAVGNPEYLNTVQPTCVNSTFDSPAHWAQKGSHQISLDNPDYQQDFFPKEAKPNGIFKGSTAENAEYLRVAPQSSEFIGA

| Compound | Biochem EGFR %Inhibition [1] | Met Kinase % Inhibition [2] |
| --- | --- | --- |
| CNS(=O)(=O)c1ccc2c(c1)C(=Cc1c(O)cc(O)cc1O)C(=O)N2 [10722/D03] | 31.0% | 52.8% |
| CNS(=O)(=O)c1ccc2c(c1)C(=Cc1ccc(C)s1)C(=O)N2 [10717/D07] | -4.5% | 16.8% |
| CNS(=O)(=O)c1ccc2c(c1)C(=Cc1ccc(C(F)(F)F)cc1)C(=O)N2 [10722/D11] | -10.1% | 41.0% |
| CNS(=O)(=O)c1ccc2c(c1)C(=Cc1c[nH]c3ccccc13)C(=O)N2 [10717/D06] | -23.4% | 33.8% |
| CNS(=O)(=O)c1ccc2c(c1)C(=Cc1c(O)cccc1OC)C(=O)N2 [10717/D10] | 3.5% | 15.6% |
| O=C1Nc2ccc(S(=O)(=O)Nc3ccc(C(F)(F)F)cc3)cc2C1=Cc1ccc(Cl)s1 [10721/E07] | 37.7% | 43.6% |
| CNS(=O)(=O)c1ccc2c(c1)C(=Cc1csc([N+](=O)[O-])c1)C(=O)N2 [10722/D09] | -17.2% | 52.2% |
| Cc1cc(C=C2C(=O)Nc3ccc(CCCl)cc32)sc1C [10721/G04] | 64.6% | 90.3% |
| O=C1Nc2ccc(S(=O)(=O)Nc3ccc(C(F)(F)F)cc3)cc2C1=Cc1csc([N+](=O)[O-])c1 [10722/E09] | 4.1% | 55.1% |
| CC(C)(C)c1cc(C=C2C(=O)Nc3ccc(I)cc32)cc([N+](=O)[O-])c1O [10722/B02] | 16.3% | 44.3% |
| O=C1Nc2ccc(CCCl)cc2C1=Cc1cc2c([nH]1)CCCC2 [10721/G05] | 7.7% | 8.6% |
| CNS(=O)(=O)c1ccc2c(c1)C(=Cc1cccn1C)C(=O)N2 [10717/D04] | 4.9% | 21.0% |
| Cn1c(C=C2C(=O)Nc3ccc(CCCl)cc32)nc2ccccc21 [10721/G02] | 23.6% | 7.9% |
| O=C1Nc2ccc(S(=O)(=O)Nc3ccc(C(F)(F)F)cc3)cc2C1=Cc1c(O)cc(O)cc1O [10722/E03] | 33.0% | 88.4% |
| O=C1Nc2c(Br)cc(Br)cc2C1=Cc1ccc(C(=O)O)cc1 [10722/A05] | 22.4% | 90.5% |
| O=C1Nc2ccc(I)cc2C1=Cc1ccc([N+](=O)[O-])s1 [10722/B04] | 10.6% | 53.4% |
| CNS(=O)(=O)c1ccc2c(c1)C(=Cc1ccc[nH]1)C(=O)N2 [10717/D09] | 6.8% | 29.1% |
| O=C1Nc2c(Br)cc(Br)cc2C1=Cc1cccs1 [10717/A03] | 1.0% | 54.6% |
| CC(C)(C)c1cc(C=C2C(=O)Nc3ccc(S(=O)(=O)Nc4ccc(C(F)(F)F)cc4)cc32)ccc1O [10721/E09] | 42.5% | 0.7% |
| CC(C)(C)c1cc(C=C2C(=O)Nc3ccc(CCCl)cc32)cc(C(C)(C)C)c1O [10721/G11] | 0.4% | -0.0% |
| CCCCN(CCCC)c1ccc(C=C2C(=O)Nc3ccc(S(=O)(=O)NC)cc32)cc1 [10722/D10] | -0.6% | 40.5% |
| CC(C)(C)c1cc(C=C2C(=O)Nc3ccc(CCCl)cc32)cc(Br)c1O [10721/G10] | 2.1% | 12.0% |
| CCOc1ccccc1C=C1C(=O)Nc2ccc(S(=O)(=O)NC)cc21 [10717/D02] | 10.1% | 28.6% |
| O=C1Nc2ccc(S(=O)(=O)Nc3ccc(C(F)(F)F)cc3)cc2C1=Cc1ccc(C(=O)O)cc1 [10722/E05] | -7.0% | 73.0% |
